Source: patent US20240287022A1 (Merck Sharp & Dohme LLC, priority 2021, published 2024)

Target: recombinant IL4I1 (Homo sapiens (Human), UniProt Q96RQ9)
Assay: IL4I1 Enzymatic Assay (Amplex Red/HRP coupled H2O2 detection)
Format: biochemical
Details: 1 nM IL4I1, 1 mM each Phe/Tyr/Trp, four-hour pre-incubation, 120 minutes reaction, top compound concentration of 10000 nM
Protocol: Interleukin 4 inducible protein 1 (IL4I1) is an L-amino oxidase that catalyzes the oxidation of aromatic residues (Phe, Trp and Tyr): L-amino acid+H2O+O2→2-oxo acid+NH3+H2O2. Equal molar of H2O2 and the corresponding alpha-ketoacid are produced when IL4I1 and substrate are added. In this assay, the hydrogen peroxide generated by IL4I1 are then detected through a coupled reaction with Amplex Red (10-acetyl-3,7-dihydroxyphenoxazine) and […] (HRP) to produce Resorufin product that could be detected in the form of fluorescence signals. The assessment of the inhibitory effect of small molecules (EC50) on IL4I1 is measured by the effectiveness of the compounds to inhibit the production of H2O2.
Using this assay, the potency (EC50) of each compound was determined from a ten-point (1:3 serial dilution; top compound concentration of 10000 nM) titration curve using the following outlined procedure. To each well of a black flat-bottom Greiner (Cat #781076) 384 well-plate, 25 nL of compound (0.1% DMSO in final assay volume of 25 μL) was dispensed, followed by the addition of 12.5 μL of 1× assay buffer (50 mM Hepes 7.0 and 0.005% Tween20 (Sigma, Cat #P8341; low peroxide grade)) containing 2 nM of recombinant IL4I1 (R&D Systems, Cat #5684-AO-020). Plates were placed in an ambient temperature humidified chamber for a four-hour pre-incubation with compound. Subsequently, each reaction was initiated by the addition of 12.5 μL 1× assay buffer containing 2 mM of each aromatic amino acids (Phe/Tyr/Trp), 0.1 mM Amplex Red and 2 U/mL of HRP. The final reaction in each well of 25 μL consists of 1 nM of IL4I1, 1 mM of each residues (Phe, Tyr and Trp), 0.05 mM Amplex Red and 1 U/mL of HRP. It should be noted that the concentrations of Amplex Red and HRP used here are in excess such that the conversion of H2O2 to Resorufin product occurs instantaneously and non-rate limiting. Reactions were allowed to proceed for 120 minutes followed by fluorescence readout on a Spectramax with the following set parameters: 544 nm excitation/590 nm emission, 570 nm cutoff (EnVision is an alternative reader). Dose-response curves were generated by plotting percent effect (% product conversion; Y-axis) vs. Log10 compound concentrations (X-axis). EC50 values were calculated using a non-linear regression, four-parameters sigmoidal dose-response model.

recombinant IL4I1, sequence (Q96RQ9 22-567): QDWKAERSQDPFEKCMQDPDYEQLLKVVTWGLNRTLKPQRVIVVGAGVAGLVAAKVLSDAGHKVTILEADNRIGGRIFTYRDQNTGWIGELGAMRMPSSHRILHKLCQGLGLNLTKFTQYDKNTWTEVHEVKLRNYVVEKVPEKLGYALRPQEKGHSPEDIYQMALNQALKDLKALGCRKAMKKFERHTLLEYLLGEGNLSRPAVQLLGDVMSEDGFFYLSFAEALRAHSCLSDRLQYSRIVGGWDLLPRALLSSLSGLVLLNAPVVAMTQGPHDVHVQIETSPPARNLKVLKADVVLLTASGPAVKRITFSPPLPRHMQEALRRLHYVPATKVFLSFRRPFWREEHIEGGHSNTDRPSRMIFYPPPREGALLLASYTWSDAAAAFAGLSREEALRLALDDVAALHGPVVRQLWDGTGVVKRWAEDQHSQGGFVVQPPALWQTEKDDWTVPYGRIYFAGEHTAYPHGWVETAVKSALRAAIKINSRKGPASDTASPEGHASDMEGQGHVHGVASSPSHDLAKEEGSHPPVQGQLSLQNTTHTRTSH

EC50 [nM]	Structure (SMILES)
150	Cc1onc(-c2nnc(Cc3cc4ccccc4[nH]c3=O)o2)c1C [Example 14, 3-((5-(4,5-dimethylisoxazol-3-yl)-1,3,4-oxadiazol-2-yl)methyl)quinolin-2(1H)-one]
10.2	O=c1[nH]c2ccccc2cc1Cc1nnc(-c2ncn3ccccc23)o1 [Example 16, 3-((5-(imidazo[1,5-a]pyridin-1-yl)-1,3,4-oxadiazol-2-yl)methyl)quinolin-2(1H)-one]
169	Cc1snnc1-c1nnc(Cc2cc3ccccc3[nH]c2=O)o1 [Example 17, 3-((5-(5-methyl-1,2,3-thiadiazol-4-yl)-1,3,4-oxadiazol-2-yl)methyl)quinolin-2(1H)-one]
23.4	O=c1[nH]c2ccccc2cc1Cc1nnc(-c2c[nH]c(C3CC3)n2)o1 [Example 18, 3-((5-(2-cyclopropyl-1H-imidazol-4-yl)-1,3,4-oxadiazol-2-yl)methyl)quinolin-2(1H)-one]
203	Cc1cnc(-c2nnc(Cc3cc4ccccc4[nH]c3=O)o2)s1 [Example 22, 3-((5-(5-methylthiazol-2-yl)-1,3,4-oxadiazol-2-yl)methyl)quinolin-2(1H)-one]
314	O=c1[nH]c2ccccc2cc1Cc1nnc(-c2ccn3ncnc3c2)o1 [Example 26, 3-((5-([1,2,4]triazolo[1,5-a]pyridin-7-yl)-1,3,4-oxadiazol-2-yl)methyl)quinolin-2(1H)-one]
547	Cc1oncc1-c1nnc(Cc2cc3ccccc3[nH]c2=O)o1 [Example 29, 3-((5-(5-methylisoxazol-4-yl)-1,3,4-oxadiazol-2-yl)methyl)quinolin-2(1H)-one]
696	O=c1[nH]c2ccccc2cc1Cc1nnc(-c2cnsc2)o1 [Example 30, 3-((5-(isothiazol-4-yl)-1,3,4-oxadiazol-2-yl)methyl)quinolin-2(1H)-one]
25.2	O=c1[nH]c2ccccc2cc1Cc1nnc(-c2scnc2Cl)o1 [Example 38, 3-((5-(4-chlorothiazol-5-yl)-1,3,4-oxadiazol-2-yl)methyl)quinolin-2(1H)-one]
10.2	O=c1[nH]c2ccccc2cc1Cc1nnc(-c2cc3c(s2)CCC3)o1 [Example 39, 3-((5-(5,6-dihydro-4H-cyclopenta[b]thiophen-2-yl)-1,3,4-oxadiazol-2-yl)methyl)quinolin-2(1H)-one]
23.4	O=c1[nH]c2ccccc2cc1Cc1nnc(-c2ncnc3c2CCC3)o1 [Example 40, 3-((5-(6,7-dihydro-5H-cyclopenta[d]pyrimidin-4-yl)-1,3,4-oxadiazol-2-yl)methyl)quinolin-2(1H)-one]
13.4	N#Cc1cn[nH]c1-c1nnc(Cc2cc3ccccc3[nH]c2=O)o1 [Example 41, 5-(5-((2-oxo-1,2-dihydroquinolin-3-yl)methyl)-1,3,4-oxadiazol-2-yl)-1H-pyrazole-4-carbonitrile]

More lines, now with the values behind:

Structure (SMILES)	EC50 [nM]
O=c1[nH]c2ccccc2cc1Cc1nnc(-c2cc(Cl)ccc2Cl)o1 [Example 11, 3-((5-(2,5-dichlorophenyl)-1,3,4-oxadiazol-2-yl)methyl)quinolin-2(1H)-one]	2.2
O=c1[nH]c2ccccc2cc1Cc1nnc(-c2cn3cccnc3n2)o1 [Example 12, 3-((5-(imidazo[1,2-a]pyrimidin-2-yl)-1,3,4-oxadiazol-2-yl)methyl)quinolin-2(1H)-one]	429
O=c1[nH]c2ccccc2cc1Cc1nnc(-c2cn3ccsc3n2)o1 [Example 13, 3-((5-(imidazo[2,1-b]thiazol-6-yl)-1,3,4-oxadiazol-2-yl)methyl)quinolin-2(1H)-one]	5.7
Cc1noc(C(C)C)c1-c1nnc(Cc2cc3ccccc3[nH]c2=O)o1 [Example 15, 3-((5-(5-isopropyl-3-methylisoxazol-4-yl)-1,3,4-oxadiazol-2-yl)methyl)quinolin-2(1H)-one]	13.7
Cc1nnc(Cc2cc3ccccc3[nH]c2=O)o1 [Example 20, 3-((5-methyl-1,3,4-oxadiazol-2-yl)methyl)quinolin-2(1H)-one]	624
O=c1[nH]c2ccccc2cc1Cc1nnc(C2CC3(CCC3)C2)o1 [Example 21, 3-((5-(spiro[3.3]heptan-2-yl)-1,3,4-oxadiazol-2-yl)methyl)quinolin-2(1H)-one]	177
O=c1[nH]c2ccccc2cc1Cc1nnc(Cc2ccc(Br)cc2)o1 [Example 23, 3-((5-(4-bromobenzyl)-1,3,4-oxadiazol-2-yl)methyl)quinolin-2(1H)-one]	126
Cc1noc(C)c1Cc1nnc(Cc2cc3ccccc3[nH]c2=O)o1 [Example 24, 3-((5-((3,5-dimethylisoxazol-4-yl)methyl)-1,3,4-oxadiazol-2-yl)methyl)quinolin-2(1H)-one]	194
O=c1[nH]c2ccccc2cc1Cc1nnc(Cc2cccnn2)o1 [Example 25]	615
O=c1[nH]c2ccccc2cc1Cc1nnc(CC2CC2)o1 [Example 27, 3-((5-(cyclopropylmethyl)-1,3,4-oxadiazol-2-yl)methyl)quinolin-2(1H)-one]	70.3
O=c1[nH]c2ccccc2cc1Cc1nnc(-c2cc(C(F)(F)F)[nH]n2)o1 [Example 28, 3-((5-(5-(trifluoromethyl)-1H-pyrazol-3-yl)-1,3,4-oxadiazol-2-yl)methyl)quinolin-2(1H)-one]	125
O=c1[nH]c2ccccc2cc1Cc1nnc(Cc2cnccn2)o1 [Example 31, 3-((5-(pyrazin-2-ylmethyl)-1,3,4-oxadiazol-2-yl)methyl)quinolin-2(1H)-one]	172
O=c1[nH]c2ccccc2cc1Cc1nnc(C2CCC2)o1 [Example 32, 3-((5-cyclobutyl-1,3,4-oxadiazol-2-yl)methyl)quinolin-2(1H)-one]	168
N#Cc1ccc(F)c(-c2nnc(Cc3cc4ccccc4[nH]c3=O)o2)c1 [Example 33, 4-fluoro-3-(5-((2-oxo-1,2-dihydroquinolin-3-yl)methyl)-1,3,4-oxadiazol-2-yl)benzonitrile]	65.3
O=c1[nH]c2ccccc2cc1Cc1nnc(C2(C(F)(F)F)CC2)o1 [Example 34, 3-((5-(1-(trifluoromethyl)cyclopropyl)-1,3,4-oxadiazol-2-yl)methyl)quinolin-2(1H)-one]	653
COc1ccc(C#N)cc1Cc1nnc(Cc2cc3ccccc3[nH]c2=O)o1 [Example 35, 4-methoxy-3-((5-((2-oxo-1,2-dihydroquinolin-3-yl)methyl)-1,3,4-oxadiazol-2-yl)methyl)benzonitrile]	46.5
Cc1nn(C)cc1-c1nnc(Cc2cc3ccccc3[nH]c2=O)o1 [Example 36, 3-((5-(1,3-dimethyl-1H-pyrazol-4-yl)-1,3,4-oxadiazol-2-yl)methyl)quinolin-2(1H)-one]	30.7
O=C1CC(Cc2nnc(Cc3cc4ccccc4[nH]c3=O)o2)CC(=O)N1 [Example 37, 4-((5-((2-oxo-1,2-dihydroquinolin-3-yl)methyl)-1,3,4-oxadiazol-2-yl)methyl)piperidine-2,6-dione]	138
CC1(c2nnc(Cc3cc4ccccc4[nH]c3=O)o2)CC1 [Example 42, 3-((5-(1-methylcyclopropyl)-1,3,4-oxadiazol-2-yl)methyl)quinolin-2(1H)-one]	21
COC(=O)NCc1nnc(Cc2cc3ccccc3[nH]c2=O)o1 [Example 43, methyl ((5-((2-oxo-1,2-dihydroquinolin-3-yl)methyl)-1,3,4-oxadiazol-2-yl)methyl)carbamate]	588
Cc1n[nH]c(-c2nnc(Cc3cc4ccccc4[nH]c3=O)o2)c1C [Example 44, 3-((5-(3,4-dimethyl-1H-pyrazol-5-yl)-1,3,4-oxadiazol-2-yl)methyl)quinolin-2(1H)-one]	7.7
CC1CC(=O)NC1c1ccc(Cc2cc3ccccc3[nH]c2=O)cc1 (stereo not shown) [Example 45, 3-(4-(3-methyl-5-oxopyrrolidin-2-yl)benzyl)quinolin-2(1H)-one]	6.7
O=c1[nH]c2ccccc2cc1Cc1ccc(N2CCCS2(=O)=O)nc1 [Example 46, 3-((6-(1,1-dioxidoisothiazolidin-2-yl)pyridin-3-yl)methyl)quinolin-2(1H)-one]	5.9
CCS(=O)(=O)Nc1ccc(Cc2cc3ccccc3[nH]c2=O)cn1 [Example 47, N-(5-((2-oxo-1,2-dihydroquinolin-3-yl)methyl)pyridin-2-yl)ethanesulfonamide]	10.8
CS(=O)(=O)Nc1ccc(Cc2cc3ccccc3[nH]c2=O)cn1 [Example 48, N-(5-((2-oxo-1,2-dihydroquinolin-3-yl)methyl)pyridin-2-yl)methanesulfonamide]	21.4
